The text below walks through data of ChEMBL document CHEMBL1147511 (Bioorg Med Chem Lett, 2004).

Usually Ki stands for a measure of affinity in units of concentration, obtained from inhibition or displacement. The low end stands for higher affinity, the high end for lower affinity.

Assay type in all cases: protein-complex assay
For test [1], the target named is Neuronal acetylcholine receptor; alpha2/beta2 (Rattus norvegicus, UniProt P12389+P12390). Description: Binding affinity towards nicotinic acetylcholine receptor alpha2-beta2 using [3H]epibatidine.
Test [2] deals with Neuronal acetylcholine receptor; alpha2/beta4 (Rattus norvegicus, UniProt P12389+P12392). Description: Binding affinity towards Nicotinic acetylcholine receptor alpha2-beta4 using [3H]epibatidine.
Test [3] has as its target Neuronal acetylcholine receptor; alpha4/beta4 (Rattus norvegicus, UniProt P09483+P12392). In words: Binding affinity towards Nicotinic acetylcholine receptor alpha4-beta4 using [3H]epibatidine.
For test [4], the target named is Neuronal acetylcholine receptor; alpha3/beta2 (Rattus norvegicus, UniProt P04757+P12390). Description: Binding affinity towards Nicotinic acetylcholine receptor alpha3-beta2 using [3H]epibatidine.
Test [5] has as its target Neuronal acetylcholine receptor; alpha4/beta2 (Rattus norvegicus, UniProt P09483+P12390). Description: Binding affinity towards Nicotinic acetylcholine receptor alpha4-beta2 using [3H]epibatidine.
Test [6] deals with T1, Neuronal acetylcholine receptor; alpha3/beta4 (Rattus norvegicus, UniProt P04757+P12392). In words: Binding affinity towards Nicotinic acetylcholine receptor alpha3-beta4 using [3H]epibatidine.
In test [7] the target is T1, Neuronal acetylcholine receptor; alpha3/beta4. In words: Binding affinity towards Nicotinic acetylcholine receptor alpha3-beta4.

Neuronal acetylcholine receptor; alpha4/beta4, sequence (P09483 whole entry): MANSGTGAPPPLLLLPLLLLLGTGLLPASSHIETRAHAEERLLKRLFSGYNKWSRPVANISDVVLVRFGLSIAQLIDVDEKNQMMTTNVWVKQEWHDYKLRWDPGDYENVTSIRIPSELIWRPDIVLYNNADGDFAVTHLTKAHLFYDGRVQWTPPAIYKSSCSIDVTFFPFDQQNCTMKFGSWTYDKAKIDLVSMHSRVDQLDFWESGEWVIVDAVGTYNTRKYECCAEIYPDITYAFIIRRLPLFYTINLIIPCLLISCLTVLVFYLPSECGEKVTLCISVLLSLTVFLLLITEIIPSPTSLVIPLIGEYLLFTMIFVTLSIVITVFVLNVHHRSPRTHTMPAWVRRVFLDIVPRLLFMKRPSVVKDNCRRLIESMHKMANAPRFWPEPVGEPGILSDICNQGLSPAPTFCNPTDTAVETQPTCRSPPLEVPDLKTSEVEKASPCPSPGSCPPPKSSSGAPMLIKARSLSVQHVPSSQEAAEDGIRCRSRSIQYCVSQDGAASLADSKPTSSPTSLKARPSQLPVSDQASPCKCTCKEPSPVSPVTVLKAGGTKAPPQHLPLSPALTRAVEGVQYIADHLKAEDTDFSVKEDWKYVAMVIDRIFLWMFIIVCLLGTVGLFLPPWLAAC
Neuronal acetylcholine receptor; alpha4/beta4, sequence (P12392 whole entry): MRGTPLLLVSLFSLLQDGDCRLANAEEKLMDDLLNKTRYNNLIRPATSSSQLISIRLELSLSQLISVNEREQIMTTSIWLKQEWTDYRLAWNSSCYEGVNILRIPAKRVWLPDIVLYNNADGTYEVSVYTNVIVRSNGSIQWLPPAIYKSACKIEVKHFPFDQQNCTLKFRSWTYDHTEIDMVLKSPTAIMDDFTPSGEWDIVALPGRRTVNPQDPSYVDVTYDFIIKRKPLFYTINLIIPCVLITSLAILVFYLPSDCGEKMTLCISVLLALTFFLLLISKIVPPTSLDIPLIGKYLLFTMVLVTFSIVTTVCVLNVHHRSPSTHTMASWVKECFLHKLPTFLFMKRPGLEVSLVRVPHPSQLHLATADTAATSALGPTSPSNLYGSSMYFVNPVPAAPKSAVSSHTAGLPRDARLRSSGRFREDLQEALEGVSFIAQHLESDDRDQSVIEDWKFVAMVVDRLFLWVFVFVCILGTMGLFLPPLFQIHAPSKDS
Neuronal acetylcholine receptor; alpha4/beta2, sequence (P09483 whole entry): as the sequence (P09483 whole entry) above
Neuronal acetylcholine receptor; alpha4/beta2, sequence (P12390 whole entry): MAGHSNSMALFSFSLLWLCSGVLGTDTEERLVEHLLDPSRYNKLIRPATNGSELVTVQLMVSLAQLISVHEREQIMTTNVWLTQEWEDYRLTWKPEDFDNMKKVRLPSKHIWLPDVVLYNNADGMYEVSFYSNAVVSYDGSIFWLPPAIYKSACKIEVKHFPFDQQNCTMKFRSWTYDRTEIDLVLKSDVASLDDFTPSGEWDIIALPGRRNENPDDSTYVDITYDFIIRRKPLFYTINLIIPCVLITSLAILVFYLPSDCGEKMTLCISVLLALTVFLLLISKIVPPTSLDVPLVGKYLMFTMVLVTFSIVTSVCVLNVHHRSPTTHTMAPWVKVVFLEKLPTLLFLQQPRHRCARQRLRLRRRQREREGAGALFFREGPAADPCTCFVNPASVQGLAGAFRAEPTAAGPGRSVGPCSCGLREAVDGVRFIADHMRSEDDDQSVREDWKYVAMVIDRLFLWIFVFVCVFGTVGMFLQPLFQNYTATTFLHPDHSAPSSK
Neuronal acetylcholine receptor; alpha3/beta2, sequence (P04757 whole entry): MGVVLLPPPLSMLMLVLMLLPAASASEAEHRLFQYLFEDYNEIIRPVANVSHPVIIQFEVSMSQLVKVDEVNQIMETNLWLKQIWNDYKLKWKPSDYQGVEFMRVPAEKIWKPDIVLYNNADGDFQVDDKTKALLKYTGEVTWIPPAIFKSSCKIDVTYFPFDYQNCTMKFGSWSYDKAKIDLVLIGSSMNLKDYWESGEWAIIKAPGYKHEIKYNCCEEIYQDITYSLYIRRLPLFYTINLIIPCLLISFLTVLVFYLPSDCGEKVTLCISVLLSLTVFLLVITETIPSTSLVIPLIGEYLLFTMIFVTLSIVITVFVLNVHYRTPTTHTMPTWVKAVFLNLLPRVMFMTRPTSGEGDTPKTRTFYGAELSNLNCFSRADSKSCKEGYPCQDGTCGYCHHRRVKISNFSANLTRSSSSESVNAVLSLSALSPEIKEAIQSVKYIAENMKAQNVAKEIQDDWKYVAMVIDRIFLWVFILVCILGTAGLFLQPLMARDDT
Neuronal acetylcholine receptor; alpha3/beta2, sequence (P12390 whole entry): as the sequence (P12390 whole entry) above
T1 sequence (P04757 whole entry): as the sequence (P04757 whole entry) above
T1 sequence (P12392 whole entry): as the sequence (P12392 whole entry) above
Neuronal acetylcholine receptor; alpha2/beta4, sequence (P12389 whole entry): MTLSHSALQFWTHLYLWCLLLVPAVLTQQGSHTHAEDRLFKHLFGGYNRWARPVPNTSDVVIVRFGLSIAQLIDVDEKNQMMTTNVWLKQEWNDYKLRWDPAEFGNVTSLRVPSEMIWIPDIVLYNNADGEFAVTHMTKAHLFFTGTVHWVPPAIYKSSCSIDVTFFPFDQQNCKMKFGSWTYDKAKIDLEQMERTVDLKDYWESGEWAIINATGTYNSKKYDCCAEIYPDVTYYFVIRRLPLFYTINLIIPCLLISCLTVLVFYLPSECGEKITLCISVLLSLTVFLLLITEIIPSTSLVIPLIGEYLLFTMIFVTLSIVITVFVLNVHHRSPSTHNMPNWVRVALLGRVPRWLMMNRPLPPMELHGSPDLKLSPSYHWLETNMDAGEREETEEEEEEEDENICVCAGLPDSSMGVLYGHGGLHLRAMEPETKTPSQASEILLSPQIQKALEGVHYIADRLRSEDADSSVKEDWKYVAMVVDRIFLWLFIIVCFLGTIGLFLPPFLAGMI
Neuronal acetylcholine receptor; alpha2/beta4, sequence (P12392 whole entry): as the sequence (P12392 whole entry) above
Neuronal acetylcholine receptor; alpha2/beta2, sequence (P12389 whole entry): as the sequence (P12389 whole entry) above
Neuronal acetylcholine receptor; alpha2/beta2, sequence (P12390 whole entry): as the sequence (P12390 whole entry) above

With `Clc1ccc(C2CC3CCC2N3CCCCCCCCCCN2C3CCC2C(c2ccc(Cl)nc2)C3)cn1` (centres undefined), the Ki came out at 7.51 nM in test [1]; 71.7 nM in test [2]; 61.3 nM in test [3]; 12.6 nM in test [4]; 21.6 nM in test [5]; 138 nM in test [6].

In the case of `Clc1ccc(C2CC3CCC2N3CCN2C3CCC2C(c2ccc(Cl)nc2)C3)cn1` (centres undefined), the Ki in test [1] was found to be 2.08 nM; in test [2] it was 26.8 nM; in test [3] it was 27.7 nM; in test [4], 5.44 nM; in test [7], 47.8 nM; in test [5], 9.33 nM.

In the case of `Clc1ccc(C2CC3CCC2N3CCCCCCN2C3CCC2C(c2ccc(Cl)nc2)C3)cn1` (centres undefined), the inhibition constant Ki stood at 3.13 nM in test [1]; 47.8 nM in test [2]; 40.4 nM in test [3]; 6.19 nM in test [4]; 9.05 nM in test [5]; 82.2 nM in test [6].

For `Clc1ccc(C2CC3CCC2N3CCCN2C3CCC2C(c2ccc(Cl)nc2)C3)cn1` (centres undefined), the Ki amounted to 5.53 nM in test [1]; 57.3 nM in test [2]; 54.2 nM in test [3]; 8.99 nM in test [4]; 15.7 nM in test [5]; 112 nM in test [6].
